# Entries after “also recorded” stand apart in the source; their conditions may differ.
# Test system: sham-operated mice
# Assay: Haemodynamic measurements in sham-operated mice
# Type: in vivo
# Conditions: sham mice, 0.1, 1, 10 mg kg^−1
# Experimental: One day after echocardiography, we performed in-vivo haemodynamics. The mice were anaesthetized with an intraperitoneal injection mixture of urethane (1 mg g^−1), etomidate (10 μg g^−1) and morphine (1 μg g^−1), and were then intubated via a tracheotomy and mechanically ventilated at 7 μl g^−1 tidal volume and 120 respirations per minute. A small incision was made in the apex and a French Millar cathether connected a high-fidelity pressure transducer (Scisense, London, ON, Canada) inserted into the LV. Haemodynamic recordings were performed after 5∼10 min of stable HR. The rate of pressure rise (+dP/dt) and maximal pressure, the time constant of isovolumic relaxation and HR were recorded and analysed. To determine the relative effects of the admittance and conductance techniques to contractility change induced by N106 compound infusion, whole haemodynamic function was recorded at both baseline and after administration of N106 compound through the external jugular vein. N106 compound was solubilized in 10% DMSO (Sigma-Aldrich), 10% Tween-80 (Sigma-Aldrich) and saline for in-vivo experiments. N106 or vehicle solutions were continuously infused through the external jugular vein at a rate of 50 μl min^−1 for 2 min in each dose. Whole haemodynamic functions of increasing dose of N106 of each mouse were recorded for ∼4 h. […]
structure (smiles),measurement,value
"COc1ccc(-c2nnc(Nc3nc4c(OC)cccc4s3)o2)cc1 [Compound N106, N-(4-methoxybenzo[d]thiazol-2-yl)-5-(4-methoxyphenyl)-1,3,4-oxadiazol-2-amine]","effect on ESPVR slope, dP/dt max, maximal pressure and heart rate",no significant effect; also recorded: not statistically significant
